ChEMBL document CHEMBL1137185, “Cytotoxic effects and reversal of multidrug resistance by ibogan and related indole alkaloids” (Bioorg Med Chem Lett, 2004)
≈ marks a conversion by molar mass, not a printed value.

What was measured:
KB [1] = test: Cytotoxic activity against vincristine-resistant human oral epidermoid carcinoma cell line (KB/VJ300); format: functional, cell-based
KB [2] = test: Cytotoxic activity against vincristine-sensitive human oral epidermoid carcinoma cell line(KB/S); format: functional, cell-based

Row | SMILES | IC50 (KB [1]) [µg/mL] | IC50 (KB [2]) [µg/mL]
1 | CCOC1[C@H]2C[C@H]([C@H](C)O)[C@@H]3N1CCc1c([nH]c4ccccc14)[C@]3(C(=O)OC)C2 (some centres not stated) | > 25 | > 25
2 | COC(=O)[C@@]12C[C@@H]3C[C@H]([C@@H](C)O)[C@@H]1N(CCc1c2[nH]c2ccccc12)C3 | 3.5 (≈ 9.87 µM) | 25 (≈ 70.5 µM)
3 | CC[C@H]1C[C@H]2C[C@@]3(C(=O)OC)c4[nH]c5ccc(OC)cc5c4CCN(C2C#N)[C@@H]13 (some centres not stated) | 7 (≈ 17.8 µM) | 9.4 (≈ 23.9 µM)
4 | COC(=O)[C@@]12C[C@@H]3C[C@H]([C@@H](C)O)[C@@H]1N(CCc1c2[nH]c2cc(OC)ccc12)C3 | > 25 | > 25
5 | COC(=O)[C@]12C[C@H]3CC4[C@H](C)OCN(CCc5c1n(c1ccccc51)C3O)[C@@H]42 (some centres not stated) | 4 (≈ 10.5 µM) | 25 (≈ 65.4 µM)
6 | COC(=O)[C@]12C[C@H]3CC4[C@H](C)OCN(CCc5c1n(c1cc(OC)ccc51)C3=O)[C@@H]42 (some centres not stated) | > 25 | > 25
7 | COC(=O)N1c2ccccc2C23CCN4CCCC5(CCC12[C@](O)(C(=O)OC)C5)[C@H]43 (some centres not stated) | 0.64 (≈ 1.55 µM) | > 25
8 | C[C@H](O)[C@H]1C[C@H]2C[C@H]3c4[nH]c5ccccc5c4CCN(C2)[C@@H]13 | 7.8 (≈ 26.3 µM) | 16.1 (≈ 54.3 µM)
9 | CCC1C[C@H]2C[C@@]3(C(=O)OC)c4[nH]c5ccccc5c4CCN(C2=O)[C@@H]13 (some centres not stated) | > 25 | > 25
10 | COC(=O)[C@@]12C[C@@H]3C[C@@H]([C@H](C)O)[C@@H]1NCCc1c2n(c2cc(OC)ccc12)[C@H]3O | > 25 | > 25
11 | CCOC1[C@H]2C[C@H]([C@@H](C)O)[C@@H]3N1CCc1c([nH]c4ccccc14)[C@]3(C(=O)OC)C2 (some centres not stated) | > 25 | > 25
12 | COC(=O)[C@@]12C[C@H]3C[C@@H](C(C)=O)[C@@H]1NCCc1c2n(c2ccccc12)C3O (some centres not stated) | 2 (≈ 5.43 µM) | 25 (≈ 67.9 µM)
13 | CC[C@H]1C[C@H]2C[C@@]3(C(=O)OC)c4[nH]c5ccccc5c4CCN(C2C#N)[C@@H]13 (some centres not stated) | 1.4 (≈ 3.85 µM) | 2.2 (≈ 6.05 µM)
14 | COC(=O)[C@@]12C[C@@H]3C[C@H]([C@H](C)O)[C@@H]1N(CCc1c2[nH]c2ccccc12)C3 | 8.5 (≈ 24 µM) | > 25
15 | CC[C@H]1C[C@H]2C[C@@]3(C(=O)OC)c4[nH]c5cc(OC)ccc5c4CCN(C2C#N)[C@@H]13 (some centres not stated) | 1.1 (≈ 2.8 µM) | 1.9 (≈ 4.83 µM)
16 | CC[C@H]1C[C@@H]2C[C@@]3(C(=O)OC)c4c(c5ccccc5n4C2O)CCN[C@@H]13 (some centres not stated) | 2.5 (≈ 7.05 µM) | 3.5 (≈ 9.87 µM)
17 | COC(=O)[C@@]12C[C@@H]3C[C@H]([C@@H](C)O)[C@@H]1N(CCc1c2[nH]c2ccccc12)C3=O | > 25 | > 25
18 | CC[C@H]1C[C@H](CO)C[C@@]2(C(=O)OC)c3[nH]c4ccccc4c3CCN[C@@H]12 | > 25 | > 25
19 | COC(=O)[C@@]12C[C@@H]3C[C@H](C(C)(O)O)[C@@H]1N(CCc1c2[nH]c2cc(OC)ccc12)C3 | 14.5 (≈ 36.2 µM) | > 25
20 | CCOC1[C@H]2C[C@H](CC)[C@@H]3N1CCc1c([nH]c4ccccc14)[C@]3(C(=O)OC)C2 (some centres not stated) | 13 (≈ 34 µM) | > 25
21 | CC[C@H]1C[C@@H]2CN3CCc4c([nH]c5ccccc45)C(C)(C2)[C@H]13 | > 25 | > 25
22 | CC[C@H]1C[C@@H]2CN3CC[C@]4(O)C(=Nc5ccccc54)[C@](C(=O)OC)(C2)[C@H]13 [CORONARIDINE HYDROXYINDOLENINE] | > 25 | > 25
23 | CC[C@H]1C[C@@H]2CN3CCc4c([nH]c5ccccc45)[C@](C(=O)OC)(C2)[C@H]13 [CORONARIDINE] | 2.6 (≈ 7.68 µM) | 11.5 (≈ 34 µM)
24 | CC[C@H]1C[C@@H]2CN3CCc4c([nH]c5cc(OC)ccc45)[C@](C(=O)OC)(C2)[C@H]13 [ISOVOACANGINE] | > 25 | > 25
25 | COC(=O)[C@@]12C[C@@H]3C[C@H]([C@H](C)O)[C@@H]1N(CCc1c2[nH]c2cc(OC)ccc12)C3 [ISOVOACRISTINE] | 18.8 (≈ 48.9 µM) | > 25
26 | CC[C@H]1C[C@@H]2CN3CCc4c([nH]c5ccc(OC)cc45)[C@](C(=O)OC)(C2)[C@H]13 [VOACANGINE] | > 25 | > 25
